Source: ChEMBL document CHEMBL2086259, “13,28-Epoxy triterpenoid saponins from Ardisia japonica selectively inhibit proliferation of liver cancer cells without affecting normal liver cells” (Bioorg Med Chem Lett, 2012)

Assays:
[1] = Cytotoxicity against human HL-7702 cells after 72 hrs by MTT assay; assay type: cell-based; settings: L02, 72 h
HepG2 = experiment: Cytotoxicity against human HepG2 cells after 72 hrs by MTT assay; assay type: functional, cell-based; settings: HepG2, 72 h
Bel-7402 = experiment: Cytotoxicity against human Bel7402 cells after 72 hrs by MTT assay; assay type: functional, cell-based; settings: Bel-7402, 72 h
OVCAR-3 = experiment: Cytotoxicity against human OVCAR3 cells after 72 hrs by MTT assay; assay type: functional, cell-based; settings: OVCAR-3, 72 h
MCF7 = experiment: Cytotoxicity against human MCF7 cells after 72 hrs by MTT assay; assay type: functional, cell-based; settings: MCF7, 72 h
DU-145 = experiment: Cytotoxicity against human DU145 cells after 72 hrs by MTT assay; assay type: functional, cell-based; settings: DU-145, 72 h
Caco-2 = experiment: Cytotoxicity against human Caco2 cells after 72 hrs by MTT assay; assay type: functional, cell-based; settings: Caco-2, 72 h
HCT-116 = experiment: Cytotoxicity against human HCT116 cells after 72 hrs by MTT assay; assay type: functional, cell-based; settings: HCT-116, 72 h
MKN-45 = experiment: Cytotoxicity against human MKN45 cells after 72 hrs by MTT assay; assay type: functional, cell-based; settings: MKN-45, 72 h
NCI-H157 = experiment: Cytotoxicity against human NCI-H157 cells after 72 hrs by MTT assay; assay type: functional, cell-based; settings: NCI-H157, 72 h
SGC-7901 = experiment: Cytotoxicity against human SGC7901 cells after 72 hrs by MTT assay; assay type: functional, cell-based; settings: SGC-7901, 72 h
NCI-H446 = experiment: Cytotoxicity against human NCI-H446 cells after 72 hrs by MTT assay; assay type: functional, cell-based; settings: NCI-H446, 72 h
[2] = Cytotoxicity against human LTEP-A2 cells after 72 hrs by MTT assay; assay type: functional, cell-based; settings: LTEP-A2, 72 h
NCI-H460 = experiment: Cytotoxicity against human H460 cells after 72 hrs by MTT assay; assay type: functional, cell-based; settings: NCI-H460, 72 h
A549 = experiment: Cytotoxicity against human A549 cells after 72 hrs by MTT assay; assay type: functional, cell-based; settings: A549, 72 h
Bcap37 = experiment: Cytotoxicity against human Bcap37 cells after 72 hrs by MTT assay; assay type: functional, cell-based; settings: Bcap37, 72 h

SMILES: CC1(C)CC[C@]23CO[C@@]4(CC[C@@H]5[C@@]6(C)CC[C@H](O[C@@H]7OC[C@H](O[C@@H]8O[C@H](CO)[C@@H](O)[C@H](O[C@@H]9O[C@H](CO)[C@@H](O[C@@H]%10O[C@H](CO)[C@@H](O)[C@H](O)[C@H]%10O)[C@H](O[C@@H]%10O[C@H](CO)[C@@H](O)[C@H](O)[C@H]%10O)[C@H]9O)[C@H]8O[C@@H]8OC[C@@H](O)[C@H](O)[C@H]8O)[C@H](O)[C@H]7O[C@@H]7O[C@H](CO)[C@@H](O)[C@H](O)[C@H]7O)C(C)(C)[C@@H]6CC[C@@]5(C)[C@]4(C)C[C@H]2O)[C@@H]3C1 [ARDISIANOSIDES A]
- IC50 [1]: > 100000 nM
- IC50 (HepG2): 3830 nM
- IC50 (Bel-7402): 1370 nM

SMILES: C[C@@H]1O[C@@H](O[C@H]2[C@H](O[C@H]3CO[C@@H](O[C@H]4CC[C@]5(C)[C@H]6CC[C@]78OC[C@@]9(CC[C@](C)(CO)C[C@H]97)[C@H](O)C[C@@]8(C)[C@]6(C)CC[C@H]5C4(C)C)[C@H](O[C@@H]4O[C@H](CO)[C@@H](O)[C@H](O)[C@H]4O)[C@H]3O)O[C@H](CO)[C@@H](O)[C@@H]2O)[C@H](O)[C@H](O)[C@H]1O [ARDISICRENOSIDE A]
- IC50 [1]: > 100000 nM
- IC50 (HepG2): > 100000 nM
- IC50 (Bel-7402): > 100000 nM

SMILES: CC1(C)[C@@H](O[C@@H]2OC[C@H](O[C@@H]3O[C@H](CO)[C@@H](O)[C@H](O[C@@H]4O[C@H](CO)[C@@H](O)[C@H](O)[C@H]4O)[C@H]3O[C@@H]3OC[C@@H](O)[C@H](O)[C@H]3O)[C@H](O)[C@H]2O[C@@H]2O[C@H](CO)[C@@H](O)[C@H](O)[C@H]2O)CC[C@]2(C)[C@H]3CC[C@]45OC[C@@]6(CC[C@](C)(C=O)C[C@H]64)[C@H](O)C[C@@]5(C)[C@]3(C)CC[C@@H]12 [CYCLAMIN]
- IC50 [1]: > 100000 nM
- IC50 (HepG2): 12200 nM
- IC50 (Bel-7402): 3850 nM

SMILES: C[C@@H]1O[C@@H](O[C@H]2[C@H](O[C@H]3CO[C@@H](O[C@H]4CC[C@]5(C)[C@H]6CC[C@]78OC[C@@]9(CC[C@](C)(C=O)C[C@H]97)[C@H](O)C[C@@]8(C)[C@]6(C)CC[C@H]5C4(C)C)[C@H](O)[C@H]3O)O[C@H](CO)[C@@H](O)[C@@H]2O)[C@H](O)[C@H](O)[C@H]1O [CYCLAMIRETIN A]
- IC50 [1]: > 100000 nM
- IC50 (HepG2): > 100000 nM
- IC50 (Bel-7402): > 100000 nM

SMILES: COc1cccc2c1C(=O)c1c(O)c3c(c(O)c1C2=O)C[C@@](O)(C(=O)CO)C[C@@H]3O[C@H]1C[C@H](N)[C@@H](O)[C@H](C)O1 [EPIRUBICIN]
- IC50 (OVCAR-3): 750 nM
- IC50 (MCF7): 1250 nM
- IC50 (DU-145): 4010 nM
- IC50 (Caco-2): 410 nM
- IC50 (HCT-116): 570 nM
- IC50 [1]: 1740 nM
- IC50 (MKN-45): 660 nM
- IC50 (NCI-H157): 1720 nM
- IC50 (SGC-7901): 510 nM
- IC50 (NCI-H446): 2350 nM
- IC50 (HepG2): 2230 nM
- IC50 [2]: 3410 nM
- IC50 (NCI-H460): 6740 nM
- IC50 (A549): 880 nM
- IC50 (Bel-7402): 1230 nM
- IC50 (Bcap37): 890 nM

SMILES: CC1(C)[C@@H](O[C@@H]2OC[C@H](O[C@@H]3O[C@H](CO)[C@@H](O)[C@H](O)[C@H]3O[C@@H]3OC[C@@H](O)[C@H](O)[C@H]3O)[C@H](O)[C@H]2O)CC[C@]2(C)[C@H]3CC[C@]45OC[C@@]6(CC[C@](C)(C=O)C[C@H]64)[C@H](O)C[C@@]5(C)[C@]3(C)CC[C@@H]12 [PRIMULANIN]
- IC50 [1]: > 100000 nM
- IC50 (HepG2): > 100000 nM
- IC50 (Bel-7402): 4050 nM
